Read-outs that look alike come from different tables or passages of the source.
Experiments:
DLD-1 = assay: cells; format: cell-based; conditions: Homo sapiens
RKO = assay: cells; format: cell-based; conditions: Homo sapiens, RKO
[1] = system: endothelial tube formation in co-cultures of ECFCs and ADSCs treated with VEGF; assay: cells; format: cell-based, human
hGSK3b = biological target: T1, hGSK3b (Homo sapiens, UniProt P49841); assay: Cerep LANCE kinase assay hGSK3b (S1 assay 34); format: biochemical; conditions: kinase assay; read-out: GSK3b
T1 construct: purchased Cerep (LANCE kinase assay platform, contract assay)

SW480 = assay: cells; format: cell-based; conditions: Homo sapiens
[2] = system: nuclear β-catenin in C2C12 cells; assay: cells; format: cell-based
HCT116 = assay: cells; format: cell-based; conditions: Homo sapiens
INS-1E cells = assay: cells; format: cell-based, rat
HeLa cells = assay: cells; format: cell-based; conditions: Homo sapiens, HeLa, read-out: CellCycle G2/M
SNU-C1 = assay: cells; format: cell-based; conditions: Homo sapiens
Colo320 = assay: cells; format: cell-based; conditions: Homo sapiens
HT-29 = assay: cells; format: cell-based; conditions: Homo sapiens
hp70S6K1 (RPS6KB1) = biological target: T2, hp70S6K1 (RPS6KB1) (Homo sapiens, UniProt P23443); assay: Cerep LANCE kinase assay hp70S6K1 (S1 assay 31); format: biochemical; conditions: kinase assay; read-out: p70S6K1
T2 construct: purchased Cerep (LANCE kinase assay platform, contract assay)

hJAK2 = biological target: T3, hJAK2 (Homo sapiens, UniProt O60674); assay: Cerep LANCE kinase assay hJAK2 (S1 assay 33); format: biochemical; conditions: kinase assay; read-out: JAK2
T3 construct: purchased Cerep (LANCE kinase assay platform, contract assay)

[3] = system: HCT116 cells treated with a GSK3β inhibitor; assay: cells; format: cell-based; conditions: Homo sapiens
NCI-H716 cells = assay: cells; format: cell-based, Human
hFLT3 = biological target: T4, hFLT3 (Homo sapiens, UniProt P36888); assay: Cerep LANCE kinase assay hFLT3 (S1 assay 35); format: biochemical; conditions: kinase assay; read-out: FLT3
T4 construct: purchased Cerep (LANCE kinase assay platform, contract assay)

hKDR = biological target: T5, hKDR (Homo sapiens, UniProt P35968); assay: Cerep LANCE kinase assay hKDR (S1 assay 32); format: biochemical; conditions: kinase assay; read-out: KDR
T5 construct: purchased Cerep (LANCE kinase assay platform, contract assay)

[4] = DLD-1, read-out: Basal_Viability ATP DLD-1
[5] = read-out: Basal_Viability ATP RKO
[6] = Homo sapiens, read-out: Anti-Angiogenesis
[7] = SW480, read-out: Basal_Viability ATP SW480
[8] = Mus musculus, C2C12, read-out: Wnt Pathway
[9] = HCT-116, read-out: Basal_Viability ATP HCT116
[10] = Rattus norvegicus, INS-1E, read-out: Insulin Secretion
[11] = SNU-C1, read-out: Basal_Viability ATP SNU-C1
[12] = COLO 320, read-out: Basal_Viability ATP Colo 320
[13] = HT-29, read-out: Basal_Viability ATP HT-29
[14] = HCT-116, read-out: GSK3b inh pretreated_Viability ATP HCT116
[15] = Homo sapiens, NCI-H716, read-out: GLP 1 Secretion

T5 sequence (P35968 20-1356): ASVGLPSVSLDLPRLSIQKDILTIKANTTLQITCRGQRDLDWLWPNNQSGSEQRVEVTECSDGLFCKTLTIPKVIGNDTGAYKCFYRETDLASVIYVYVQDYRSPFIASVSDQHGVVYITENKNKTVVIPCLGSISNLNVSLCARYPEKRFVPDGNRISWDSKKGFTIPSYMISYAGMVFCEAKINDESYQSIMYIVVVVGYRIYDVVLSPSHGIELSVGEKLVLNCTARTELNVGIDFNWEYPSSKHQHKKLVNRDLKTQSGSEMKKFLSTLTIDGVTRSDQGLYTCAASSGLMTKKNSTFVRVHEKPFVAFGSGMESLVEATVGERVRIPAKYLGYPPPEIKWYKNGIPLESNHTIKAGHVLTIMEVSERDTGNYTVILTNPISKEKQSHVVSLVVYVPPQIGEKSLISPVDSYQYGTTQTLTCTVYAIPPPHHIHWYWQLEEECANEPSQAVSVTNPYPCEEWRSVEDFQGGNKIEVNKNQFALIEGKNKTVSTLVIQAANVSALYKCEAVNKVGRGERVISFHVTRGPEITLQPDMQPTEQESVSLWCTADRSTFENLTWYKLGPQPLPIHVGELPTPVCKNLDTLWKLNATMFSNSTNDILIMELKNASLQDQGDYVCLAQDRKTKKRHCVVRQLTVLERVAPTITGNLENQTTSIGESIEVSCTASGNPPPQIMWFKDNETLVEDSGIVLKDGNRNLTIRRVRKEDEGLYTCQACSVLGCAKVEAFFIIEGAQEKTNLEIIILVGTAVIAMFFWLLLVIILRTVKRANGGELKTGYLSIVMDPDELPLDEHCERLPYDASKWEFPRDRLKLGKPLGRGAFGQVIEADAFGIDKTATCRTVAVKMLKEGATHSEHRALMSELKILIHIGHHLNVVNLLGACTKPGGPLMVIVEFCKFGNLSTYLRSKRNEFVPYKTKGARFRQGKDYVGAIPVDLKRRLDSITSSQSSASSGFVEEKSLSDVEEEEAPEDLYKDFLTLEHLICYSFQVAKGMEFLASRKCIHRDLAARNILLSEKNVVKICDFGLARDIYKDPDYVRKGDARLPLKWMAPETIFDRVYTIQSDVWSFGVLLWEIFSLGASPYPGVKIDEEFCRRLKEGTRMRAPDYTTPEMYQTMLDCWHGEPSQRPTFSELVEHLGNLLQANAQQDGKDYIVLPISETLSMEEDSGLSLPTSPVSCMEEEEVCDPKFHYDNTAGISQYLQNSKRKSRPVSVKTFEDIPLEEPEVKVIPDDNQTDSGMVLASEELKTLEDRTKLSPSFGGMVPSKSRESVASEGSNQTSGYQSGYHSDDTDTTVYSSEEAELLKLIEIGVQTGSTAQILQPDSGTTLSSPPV
T4 sequence (P36888 27-993): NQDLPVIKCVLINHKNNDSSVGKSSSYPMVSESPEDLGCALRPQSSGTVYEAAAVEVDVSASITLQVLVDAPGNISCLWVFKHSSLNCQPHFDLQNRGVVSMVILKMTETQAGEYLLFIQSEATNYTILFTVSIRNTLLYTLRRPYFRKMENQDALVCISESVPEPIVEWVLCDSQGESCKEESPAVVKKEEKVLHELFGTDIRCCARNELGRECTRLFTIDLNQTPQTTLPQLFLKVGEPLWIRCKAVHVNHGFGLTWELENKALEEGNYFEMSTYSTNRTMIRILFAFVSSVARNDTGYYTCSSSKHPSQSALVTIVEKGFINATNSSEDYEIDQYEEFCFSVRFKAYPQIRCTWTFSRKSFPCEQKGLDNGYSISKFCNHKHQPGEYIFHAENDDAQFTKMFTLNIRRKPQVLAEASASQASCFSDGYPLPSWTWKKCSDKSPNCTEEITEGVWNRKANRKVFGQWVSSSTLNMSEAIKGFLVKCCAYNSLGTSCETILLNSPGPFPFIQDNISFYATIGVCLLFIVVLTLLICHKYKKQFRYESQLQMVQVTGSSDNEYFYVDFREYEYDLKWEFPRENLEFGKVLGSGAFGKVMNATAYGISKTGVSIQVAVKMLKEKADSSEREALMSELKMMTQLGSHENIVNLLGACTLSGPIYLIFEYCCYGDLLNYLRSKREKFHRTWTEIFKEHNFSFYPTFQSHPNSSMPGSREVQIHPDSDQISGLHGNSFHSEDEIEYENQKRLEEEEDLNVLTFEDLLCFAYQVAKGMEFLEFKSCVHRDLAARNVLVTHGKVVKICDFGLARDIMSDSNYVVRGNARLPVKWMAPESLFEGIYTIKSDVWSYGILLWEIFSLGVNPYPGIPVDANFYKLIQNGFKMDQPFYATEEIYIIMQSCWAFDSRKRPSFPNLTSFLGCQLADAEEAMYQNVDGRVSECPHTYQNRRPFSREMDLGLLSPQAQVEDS
T2 sequence (P23443 whole entry): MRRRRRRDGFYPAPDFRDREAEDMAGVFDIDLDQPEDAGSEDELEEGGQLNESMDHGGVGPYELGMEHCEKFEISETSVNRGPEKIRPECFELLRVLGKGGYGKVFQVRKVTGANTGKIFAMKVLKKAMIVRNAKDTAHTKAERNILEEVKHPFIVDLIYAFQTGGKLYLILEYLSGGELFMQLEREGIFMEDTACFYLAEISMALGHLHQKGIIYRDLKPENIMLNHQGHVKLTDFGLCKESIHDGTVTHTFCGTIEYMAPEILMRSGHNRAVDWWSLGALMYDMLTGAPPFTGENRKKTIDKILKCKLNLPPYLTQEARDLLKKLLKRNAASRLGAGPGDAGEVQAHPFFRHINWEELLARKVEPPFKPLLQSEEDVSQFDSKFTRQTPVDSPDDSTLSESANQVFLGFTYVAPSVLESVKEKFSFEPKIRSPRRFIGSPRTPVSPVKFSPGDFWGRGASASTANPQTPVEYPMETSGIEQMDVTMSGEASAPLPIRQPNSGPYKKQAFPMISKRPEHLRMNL
T1 sequence (P49841 whole entry): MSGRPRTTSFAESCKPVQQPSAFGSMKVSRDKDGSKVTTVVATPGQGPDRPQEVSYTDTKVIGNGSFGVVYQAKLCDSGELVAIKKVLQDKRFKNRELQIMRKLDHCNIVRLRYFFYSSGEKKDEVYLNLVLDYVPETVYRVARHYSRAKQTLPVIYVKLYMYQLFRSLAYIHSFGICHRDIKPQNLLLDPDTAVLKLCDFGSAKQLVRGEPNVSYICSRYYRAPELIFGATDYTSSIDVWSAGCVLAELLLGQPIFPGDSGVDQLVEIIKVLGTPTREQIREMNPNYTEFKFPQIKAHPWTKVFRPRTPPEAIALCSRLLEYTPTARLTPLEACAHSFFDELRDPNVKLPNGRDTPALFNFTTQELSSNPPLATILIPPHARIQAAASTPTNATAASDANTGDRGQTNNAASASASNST
T3 sequence (O60674 whole entry): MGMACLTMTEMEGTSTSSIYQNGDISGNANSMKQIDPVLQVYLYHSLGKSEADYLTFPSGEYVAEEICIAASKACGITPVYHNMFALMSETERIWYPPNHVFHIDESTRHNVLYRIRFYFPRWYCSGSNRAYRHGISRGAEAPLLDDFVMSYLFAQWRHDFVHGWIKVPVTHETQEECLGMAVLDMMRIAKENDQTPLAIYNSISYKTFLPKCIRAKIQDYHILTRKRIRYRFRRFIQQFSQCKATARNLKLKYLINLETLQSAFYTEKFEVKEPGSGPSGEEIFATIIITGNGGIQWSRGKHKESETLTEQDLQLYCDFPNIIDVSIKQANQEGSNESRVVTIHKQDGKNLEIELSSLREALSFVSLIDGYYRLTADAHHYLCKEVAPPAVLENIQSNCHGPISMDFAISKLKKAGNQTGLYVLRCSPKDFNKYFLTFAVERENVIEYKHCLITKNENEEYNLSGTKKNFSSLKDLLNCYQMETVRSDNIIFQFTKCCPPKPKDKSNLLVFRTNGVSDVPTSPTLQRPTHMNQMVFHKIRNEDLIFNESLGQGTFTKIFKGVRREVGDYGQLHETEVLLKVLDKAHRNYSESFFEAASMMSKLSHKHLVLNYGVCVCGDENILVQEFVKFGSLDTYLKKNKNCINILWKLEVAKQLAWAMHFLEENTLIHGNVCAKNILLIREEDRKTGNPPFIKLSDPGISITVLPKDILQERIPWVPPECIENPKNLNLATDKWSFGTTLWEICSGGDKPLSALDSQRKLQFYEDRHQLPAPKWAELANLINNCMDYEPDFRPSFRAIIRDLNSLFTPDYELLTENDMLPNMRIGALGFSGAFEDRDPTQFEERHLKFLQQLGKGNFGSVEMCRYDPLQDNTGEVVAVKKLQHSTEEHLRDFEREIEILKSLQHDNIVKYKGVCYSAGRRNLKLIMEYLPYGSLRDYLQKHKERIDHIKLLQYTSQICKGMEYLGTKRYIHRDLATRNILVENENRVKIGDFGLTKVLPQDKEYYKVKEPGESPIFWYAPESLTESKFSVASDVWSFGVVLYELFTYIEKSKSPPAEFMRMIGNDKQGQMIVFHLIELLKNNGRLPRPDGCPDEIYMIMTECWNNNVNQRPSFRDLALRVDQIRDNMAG

SMILES	IC50 (DLD-1; [4]) [nM]	IC50 (RKO; [5]) [nM]	IC50 [1, 6] [nM]	IC50 (hGSK3b) [nM]	IC50 (SW480; [7]) [nM]	EC50 [2, 8] [nM]	IC50 (HCT116; [9]) [nM]	EC50 (INS-1E cells; [10]) [nM]	EC50 (HeLa cells) [nM]	IC50 (SNU-C1; [11]) [nM]	IC50 (Colo320; [12]) [nM]	IC50 (HT-29; [13]) [nM]	IC50 (hp70S6K1 (RPS6KB1)) [nM]	IC50 (hJAK2) [nM]	IC50 [3, 14] [nM]	EC50 (NCI-H716 cells; [15]) [nM]	IC50 (hFLT3) [nM]	IC50 (hKDR) [nM]	other results
COc1c(C)c2c(c(O)c1C/C=C(\C)CCC(=O)O)C(=O)OC2 [Mycophenolate]	> 20000	165	1260	> 20000	2600	> 10000	67.2	> 10000	> 10000	> 20000	1	> 20000	> 20000	> 20000	49.8	> 10000	> 20000	> 20000	–
O=C1c2c(O)ccc(O)c2C(=O)c2c(NCCNCCO)ccc(NCCNCCO)c21 [mitoxantrone]	1600	1030	4.4	> 20000	1830	30.3	1230	> 10000	> 10000	1720	7410	7590	> 20000	> 20000	1	> 10000	> 20000	> 20000	–
Sc1ncnc2nc[nH]c12 [Mercaptopurine]	260	659	915	> 20000	1040	> 10000	259	> 10000	> 10000	> 20000	1300	635	> 20000	> 20000	1420	> 10000	> 20000	> 20000	–
Cc1nc(N)nc(N)c1-c1ccc(Cl)c(Cl)c1 [metoprine, reference compound]	634	117	–	> 20000	512	29.9	413	–	> 10000	2160	2030	932	> 20000	> 20000	58.9	–	> 20000	> 20000	IC50 (DLD-1; DLD-1, 72 h, read-out: DLD-1 viab. IC50): 630 nM; IC50 (RKO; 72 h, read-out: RKO viab. IC50): 120 nM; IC50 ([1]; Homo sapiens, read-out: Anti-Angio IC50): > 10000 nM; IC50 (SW480; SW480, 72 h, read-out: SW480 viab. IC50): 510 nM; EC50 ([2]; Mus musculus, C2C12, read-out: Wnt pot. EC50): 30 nM; IC50 (HCT116; HCT-116, 72 h, read-out: HCT-116 viab. IC50): 410 nM; EC50 (INS-1E cells; Rattus norvegicus, INS-1E, read-out: Ins. sec. EC50): > 10000 nM; IC50 (SNU-C1; SNU-C1, 72 h, read-out: SNU-C1 viab. IC50): 2200 nM; IC50 (Colo320; COLO 320, 72 h, read-out: Colo320 viab. IC50): 2000 nM; IC50 (HT-29; HT-29, 72 h, read-out: HT-29 viab. IC50): 930 nM; IC50 ([3]; HCT-116, 72 h, read-out: HCT-116 (GSK3β) viab. IC50): 59 nM; EC50 (NCI-H716 cells; Homo sapiens, NCI-H716, read-out: GLP1 sec. EC50): > 10000 nM
COC(=O)Nc1nc2ccc(Sc3ccccc3)cc2[nH]1 [Fenbendazole]	–	–	–	> 20000	–	–	–	–	–	–	–	–	> 20000	> 20000	–	–	> 20000	> 20000	IC50 (DLD-1; DLD-1, basal, DLD-1, read-out: Basal_Viability ATP DLD-1): 67.3 nM; IC50 (RKO; basal, read-out: Basal_Viability ATP RKO): 1 nM; IC50 ([1]; Homo sapiens; read-out: Anti-Angiogenesis): 207 nM; IC50 (SW480; SW480, basal, SW480, read-out: Basal_Viability ATP SW480): > 20000 nM; EC50 ([2]; Mus musculus, C2C12; read-out: Wnt Pathway): 438 nM; IC50 (HCT116; HCT-116, basal, HCT116, read-out: Basal_Viability ATP HCT116): 1 nM; EC50 (INS-1E cells; Rattus norvegicus, INS-1E; read-out: Insulin Secretion): > 10000 nM; EC50 (HeLa cells; S2 Table, 20 = no response at highest concentration): 195 nM; IC50 (SNU-C1; SNU-C1, basal, SNU-C1, read-out: Basal_Viability ATP SNU-C1): > 20000 nM; IC50 (Colo320; basal, Colo 320, read-out: Basal_Viability ATP Colo 320): > 20000 nM; IC50 (HT-29; basal, HT-29, read-out: Basal_Viability ATP HT-29): > 20000 nM; IC50 ([3]; HCT-116, HCT116 pretreated with GSK3b inhibitor, read-out: GSK3b inh pretreated_Viability ATP HCT116): 3 nM; EC50 (NCI-H716 cells; Homo sapiens, NCI-H716; read-out: GLP 1 Secretion): > 20000 nM

Source: article PMC4503722, “Novel Phenotypic Outcomes Identified for a Public Collection of Approved Drugs from a Publicly Accessible Panel of Assays” (PLoS ONE, 2015)
